In article PMC7356587, “Efficacy, Stability, and Safety Evaluation of New Polyphenolic Xanthones Towards Identification of Bioactive Compounds to Fight Skin Photoaging” (Molecules, 2020):
Marks after values point to notes of the source that are not given here.

Experiments:
DPPH reduction assay = conditions: for IC50: DPPH reduction, 60 min incubation
Protocol: The reduction of the stable DPPH free radical was measured by monitoring the change in absorbance at 517 nm. These experiments were made in a 96-well microplate. […] In each experiment, the compounds were tested in the concentration range 0.7812 μM to 50 μM, in triplicate. For each sample concentration, a blank with ethanol 70%, instead of DPPH was made. Ascorbic acid was used as a positive control and tested in the same conditions. Blanks containing only ethanol 70% and control containing DPPH in ethanol 70% (190 μM) were used. The absorbance at 517 nm was measured in a microplate reader BioTek^TM Synergy HT (BioTeck Instruments, Vermont, USA) after 60 min of incubation in the dark with a temperature-controlled holder at 25 °C. The microplate was shaken before each reading.
The scavenging percentage of DPPH was calculated using the following equation:(1) %scavenging of DPPH=100×(1−Abssample+DPPH−Abssample blank/AbsDPPH−AbsEtOH)
The IC50 value for each sample and for the ascorbic acid was obtained by linear regression.

[1] = Metal-chelating effect by UV/Vis, FeCl3; format: physicochemical; conditions: methanolic solution
Protocol: (§1) The ultraviolet/visible (UV/Vis) spectra were recorded in methanol using a path length of 1 cm, at room temperature on a Varian CARY100 spectrophotometer (Agilent Technologies, Santa Clara, California, United States) from a range of 200 nm to 500 nm (software CaryWin UV, v. 3.0). The metal-chelating effect was evaluated by described procedures with stock solutions (1.0 × 10^−4 M) in methanol. Iron (III) and copper (II) solutions were prepared in a concentration of 1.0 × 10^−3 M from FeCl3 and CuCl2 in deionized water.

collagenase = assay: Collagenase inhibition assay; format: biochemical
Protocol: An adaptation of the method of Moore and Stein [40] with modifications by Mandl et al. was used to determine anticollagenase activity. To 2 mL test tubes was added: 25 μL of collagenase solution (0.8 U/mL), 25 μL TES buffer (50 mM) with 0.36 mM calcium chloride (pH 7.4) and 50 μL of test sample or the reference compound EDTA (with concentrations ranging between 9.4 and 150 μM). The tubes were incubated in a water bath at 37 °C for 20 min. Thereafter, 50 μL FALGPA (1 mM) solution was added to the tubes and incubated further for 60 min at 37 °C. To all tubes, 200 μL of a solution containing equal volumes of a 1.6 mg/mLTin chloride (II) solution in 200 mM citrate buffer (pH 5) and 50 mg/mL ninhydrin solution in DMSO was added. All tubes were placed in a water bath (100 °C) for 5 min and left to cool to room temperature before adding 200 μL of 50% isopropanol to each tube. Contents in the tubes were then transferred to respective wells in 96-well plates.

Stability in pH buffers = format: physicochemical; conditions: pH buffers 2-8, 21 days, room temperature, 200 µM
Protocol: All the solutions were prepared following Portuguese Pharmacopeia 9.0 specifications (F.P. (VIII) 2008). A solution at 10 mM in DMSO of each compound was prepared. One hundred microliters of antioxidant solution were diluted to 5 mL of the different buffered pH solutions, prepared in triplicate. Their absorbance measured by UV/Vis spectrophotometry in the wavelength range between 200 and 500 nm at time intervals of 0, 1, and 2 h and 1, 8, 15, and 21 d at room temperature. Each pH buffer solution was used as a compensation solution.

[2] = Metal-chelating effect by UV/Vis, CuCl2; format: physicochemical; conditions: methanolic solution
Protocol: as §1

[3] = UV/Vis absorption spectra; format: physicochemical; conditions: UVB range 280–320 nm
Protocol: as §1

hyaluronidase = system: hyaluronidase
Protocol: The methods described by Ndlovu et al. and Zhou et al. were applied for the hyaluronidase inhibition assay. Into 2 mL test tubes was placed: 50 μL of calcium chloride (12.5 mM), 50 μL of test samples or sodium aurothiomalate diluted in 0.1 M acetate buffer; pH 3.5 (with concentrations ranging between 9.4 and 150 μM), and 25 μL hyaluronidase (0.5 mg/mL). The tubes were incubated in a water bath (37 °C; 20 min) after which 50 μL of the substrate hyaluronic acid (0.25 mg/mL in 0.1 M acetate buffer; pH 3.5) was added and the tubes incubated for further 40 min. Twenty-five microliters of KBO2 • 4 H2O (0.8 M) was added to all tubes which were placed in a water bath (100 °C) for 3 min, left to cool to room temperature, and 800 μL of DMAB (4 g DMAB in 40 mL acetic acid and 5 mL 10 N HCl) was added. The tubes were then incubated for 20 min and the contents transferred to respective wells in a 96-well plate. Absorbance was detected at 585 nm in a Bio-Rad Model 680 Microplate Reader (Bio-Rad Laboratories, Inc., Hercules, CA, USA). Percentage of hyaluronidase inhibition was calculated as:(3) % hyaluronidase inhibition =Abscontrol−Abssample/Abscontrol×100 where Abscontrol is the absorbance of buffer + hyaluronidase; Abssample is the absorbance of buffer + hyaluronidase + sample/standard.

[4] = Solubility in ethanol 70%; format: physicochemical
HaCaT cells = assay: Phototoxicity evaluation, HaCaT NRU assay; format: cell-based, human
Protocol: The HaCaT cells were maintained at 37 °C in a humidified atmosphere of 95% air and 5% CO2 in the incubator in dulbecco’s modified eagle’s medium (DMEM) with 10% fetal bovine serum (FBS) and 1% antibiotics. Using an inverted microscope, cell confluence was observed and if the cells reached 70–80% confluence, subculture was done to prevent cell death. For this purpose, the culture medium was aspirated and the cells were washed with dulbecco’s phosphate buffered saline (DPBS), 2 mL of trypsin-EDTA were added and incubated for 5–8 min at 37 °C in a 5% CO2 atmosphere. After cell detaching, medium was added in order to block the trypsin action and cell suspension was centrifuged at 416 g for 5 min. The supernatant was discarded, the pellet suspended in culture medium, and cells were counted. For cell counting: 50 μL of cell suspension were added to 50 μL of Trypan Blue vital dye […], resuspended, placed in a Neubauer chamber (Hirschmann, Germany) and the viable cells were counted. For cell freezing, DMSO (5% v/v) was used as a cryopreservative to prevent the formation of crystals during the storage phase.
HaCaT cells were seeded onto 96-well tissue culture plates (Orange Scientific, Braine-l’Alleud, Belgium) at a 2 × 10^4 cells/well density and incubated at 37 °C in a 5% CO2 atmosphere for 24 h. […] In this last step, the absorbance was measured at 540 nm. […]

HaCaT cell = system: HaCaT cell; design: method as in doi:10.1016/j.arabjc.2017.01.006, PMID 31167479; conditions: cited from earlier work

solubility [4] | Compound | IC50 (DPPH reduction assay) [µM] | change of UV/Vis spectrum on sequential additions of FeCl3 [1] | Collagenase % Inhibition (150 µM) (collagenase) | pH stability (Stability in pH buffers) | change of UV/Vis spectrum on sequential additions of CuCl2 [2] | capacity to absorb UV radiation [3] | Hyaluronidase % Inhibition (150 μM) (hyaluronidase) | maximum reduction activity (DPPH reduction assay; DPPH, IC50 not determinable, probably due to solubility issues) | cytotoxicity to HaCaT cells (HaCaT cells; 12.5-200 µM, with and without UVA irradiation, NRU) | phototoxicity (HaCaT cells; up to 200 µM, HaCaT NRU assay) | decrease in HaCaT cell viability in the neutral red assay (HaCaT cell) [%] | cytotoxic effect (HaCaT cell; up to 50 µM, MTT, neutral red, Alamar Blue, Trypan Blue assays)
– | O=C1O[C@H]([C@@H](O)CO)C(O)=C1O [Ascorbic Acid, Ascorbic acid, reference compound] | 40 ± 0.8 | – | – | – | – | – | – | – | – | – | – | –
– | Cc1cc(O)c(O)c2oc3ccccc3c(=O)c12 [Compound 2, 3,4-dihydroxy-1-methyl-9H-xanthen-9-one] | 31.2 ± 4.8 | bathochromic shifts were observed | 26.83 ± 1.45 ^b % | a degradation of the compound for the range of pH tested overtime is observed | no effect was observed | high absorbance in the UVB range | n.a. (Not active (0% inhibition)) | – | – | – | – | –
low solubility | COc1cc(O)c2c(=O)c3ccccc3oc2c1O [Compound 4, 1,4-dihydroxy-3-methoxy-9H-xanthen-9-one] | – | – | – | – | – | – | – | lower than 50% | – | – | – | –
– | Cc1cc(O)c(O)c2oc3cc(O)ccc3c(=O)c12 [Compound 3, 3,4,6-trihydroxy-1-methyl-9H-xanthen-9-one] | 47.3 ± 0.4 | bathochromic shifts were observed | – | – | no effect was observed | high absorbance in the UVB range | n.a. (Not active (0% inhibition)) | – | – | – | – | –
– | O=c1c2ccccc2oc2ccc(O)c(O)c12 [Compound 1, 1,2-dihydroxy-9H-xanthen-9-one] | 28.4 ± 0.2 | bathochromic shifts | 35.77 ± 1.82 ^a % | more stable in the pH range that is closest to the pH of the skin | bathochromic shifts | high absorbance in the UVB range | n.a. (Not active (0% inhibition)) | – | not cytotoxic | nonphototoxic | 83 | did not promote a significant cytotoxic effect
